Experimental data reported in patent US10597388B2, “Pyridazinone herbicides” (FMC CORPORATION, priority 2014, dated 2020).

What was measured:
Test in all cases: Test C greenhouse herbicide test, pre- and postemergence
Format in all cases: in vivo
[1] = system: wheat (winter wheat, Triticum aestivum)
Procedure, shortened: (§1)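 Seeds sown in loam–sand blend treated preemergence; plants in peat-based medium sprayed postemergence at 2–18 cm (1- to 4-leaf stage); chemicals in non-phytotoxic solvent with surfactant. Greenhouse 13–15 d, then visual rating versus controls on 0–100 scale (0 no effect, 100 complete control).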

[2] = system: pigweed (Amaranthus retroflexus)
Procedure, shortened: as §1

[3] = system: foxtail, giant (giant foxtail, Setaria faberii)
Procedure, shortened: as §1

[4] = system: galium (catchweed bedstraw, Galium aparine)
Procedure, shortened: as §1

[5] = system: nutsedge, yellow (yellow nutsedge, Cyperus esculentus)
Procedure, shortened: as §1

[6] = system: morningglory (Ipomoea coccinea)
Procedure, shortened: as §1

[7] = system: crabgrass, large (large crabgrass, Digitaria sanguinalis)
Procedure, shortened: as §1

[8] = system: lambsquarters (Chenopodium album)
Procedure, shortened: as §1

[9] = system: waterhemp (common waterhemp, Amaranthus rudis)
Procedure, shortened: as §1

[10] = system: blackgrass (Alopecurus myosuroides)
Procedure, shortened: as §1

[11] = system: soybean (Glycine max)
Procedure, shortened: as §1

[12] = system: corn (Zea mays)
Procedure, shortened: as §1

[13] = system: barnyardgrass (Echinochloa crus-galli)
Procedure, shortened: as §1

[14] = system: ryegrass, Italian (Italian ryegrass, Lolium multiflorum)
Procedure, shortened: as §1

[15] = system: velvetleaf (Abutilon theophrasti)
Procedure, shortened: as §1

[16] = 4 g ai/ha, preemergence, visual rating, scale 0 to 100 (0 no effect, 100 complete control), 13 to 15 d
[17] = Postemergence, 8 g ai/ha, scale 0 to 100 (0 no effect, 100 complete control)
[18] = Postemergence, 16 g ai/ha, scale 0 to 100 (0 no effect, 100 complete control)
[19] = Postemergence, 31 g ai/ha, scale 0 to 100 (0 no effect, 100 complete control)
[20] = Preemergence, 16 g ai/ha, scale 0 to 100, 0 is no effect, 100 is complete control
[21] = Preemergence, 31 g ai/ha, scale 0 to 100, 0 is no effect, 100 is complete control
[22] = Preemergence, 8 g ai/ha, scale 0 to 100, 0 is no effect, 100 is complete control
[23] = Postemergence, 4 g ai/ha, scale 0 to 100 (0 no effect, 100 complete control)

Cc1ccc2ccc(Cl)cc2c1-c1c(O)c(C)nn(C)c1=O [Compound 144]
Plant response rating, Wheat [1, 16]: 0
Plant response rating, Wheat [1, 17]: 90
Wheat plant response rating [1, 17]: 90
Plant response rating, Wheat [1, 18]: 95
Plant response rating, Wheat [1, 19]: 95
Plant response rating, Wheat [1, 20]: 70
Plant response rating, Wheat [1, 21]: 90
Plant response rating, Pigweed [2, 16]: 75
Pigweed plant response rating [2, 17]: 80
Plant response rating, Pigweed [2, 17]: 85
Plant response rating, Pigweed [2, 18]: 85
Plant response rating, Pigweed [2, 19]: 90
Plant response rating, Pigweed [2, 20]: 100
Plant response rating, Pigweed [2, 21]: 100
Plant response rating, Foxtail, Giant [3, 16]: 30
Foxtail, Giant plant response rating [3, 17]: 45
Plant response rating, Foxtail, Giant [3, 17]: 50
Plant response rating, Foxtail, Giant [3, 18]: 60
Plant response rating, Foxtail, Giant [3, 19]: 70
Plant response rating, Foxtail, Giant [3, 22]: 60
Plant response rating, Foxtail, Giant [3, 20]: 75
Plant response rating, Foxtail, Giant [3, 21]: 90
Plant response rating, Galium [4, 16]: 90
Galium plant response rating [4, 17]: 80
Plant response rating, Galium [4, 17]: 90
Plant response rating, Galium [4, 18]: 90
Plant response rating, Galium [4, 19]: 95
Plant response rating, Galium [4, 20]: 95
Plant response rating, Galium [4, 21]: 100
Plant response rating, Nutsedge, Yellow [5, 16]: 5
Nutsedge, Yellow plant response rating [5, 17]: 10
Plant response rating, Nutsedge, Yellow [5, 17]: 60
Plant response rating, Nutsedge, Yellow [5, 18]: 60
Plant response rating, Nutsedge, Yellow [5, 19]: 75
Plant response rating, Nutsedge, Yellow [5, 20]: 25
Plant response rating, Nutsedge, Yellow [5, 21]: 40
Plant response rating, Morningglory [6, 16]: 25
Morningglory plant response rating [6, 17]: 90
Plant response rating, Morningglory [6, 17]: 95
Plant response rating, Morningglory [6, 18]: 98
Plant response rating, Morningglory [6, 19]: 98
Plant response rating, Morningglory [6, 20]: 80
Plant response rating, Morningglory [6, 21]: 90
Plant response rating, Crabgrass, Large [7, 16]: 0
Crabgrass, Large plant response rating [7, 17]: 20
Plant response rating, Crabgrass, Large [7, 17]: 20
Plant response rating, Crabgrass, Large [7, 18]: 25
Plant response rating, Crabgrass, Large [7, 19]: 30
Plant response rating, Crabgrass, Large [7, 22]: 5
Plant response rating, Crabgrass, Large [7, 20]: 25
Plant response rating, Crabgrass, Large [7, 21]: 60
Plant response rating, Lambsquarters [8, 16]: 25
Lambsquarters plant response rating [8, 17]: 80
Plant response rating, Lambsquarters [8, 17]: 90
Plant response rating, Lambsquarters [8, 18]: 90
Plant response rating, Lambsquarters [8, 19]: 90
Plant response rating, Lambsquarters [8, 20]: 65
Plant response rating, Lambsquarters [8, 21]: 100
Plant response rating, Waterhemp [9, 16]: 80
Plant response rating, Waterhemp [9, 17]: 90
Waterhemp plant response rating [9, 17]: 90
Plant response rating, Waterhemp [9, 18]: 90
Plant response rating, Waterhemp [9, 19]: 95
Plant response rating, Waterhemp [9, 20]: 100
Plant response rating, Waterhemp [9, 21]: 100
Plant response rating, Blackgrass [10, 16]: 30
Plant response rating, Blackgrass [10, 23]: 30
Plant response rating, Blackgrass [10, 17]: 30
Plant response rating, Blackgrass [10, 18]: 20
Plant response rating, Blackgrass [10, 19]: 35
Plant response rating, Blackgrass [10, 22]: 55
Plant response rating, Blackgrass [10, 20]: 70
Plant response rating, Blackgrass [10, 21]: 90
Plant response rating, Soybean [11, 16]: 10
Plant response rating, Soybean [11, 17]: 40
Soybean plant response rating [11, 17]: 45
Plant response rating, Soybean [11, 18]: 25
Plant response rating, Soybean [11, 19]: 25
Plant response rating, Soybean [11, 20]: 0
Plant response rating, Soybean [11, 21]: 5
Plant response rating, Corn [12, 16]: 0
Plant response rating, Corn [12, 23]: 0
Plant response rating, Corn [12, 17]: 0
Plant response rating, Corn [12, 18]: 5
Plant response rating, Corn [12, 19]: 30
Plant response rating, Corn [12, 22]: 0
Plant response rating, Corn [12, 20]: 0
Plant response rating, Corn [12, 21]: 0
Plant response rating, Barnyardgrass [13, 16]: 0
Plant response rating, Barnyardgrass [13, 23]: 15
Plant response rating, Barnyardgrass [13, 17]: 25
Plant response rating, Barnyardgrass [13, 18]: 35
Plant response rating, Barnyardgrass [13, 19]: 65
Plant response rating, Barnyardgrass [13, 22]: 0
Plant response rating, Barnyardgrass [13, 20]: 5
Plant response rating, Barnyardgrass [13, 21]: 35
Plant response rating, Ryegrass, Italian [14, 16]: 80
Plant response rating, Ryegrass, Italian [14, 17]: 35
Ryegrass, Italian plant response rating [14, 17]: 20
Plant response rating, Ryegrass, Italian [14, 18]: 45
Plant response rating, Ryegrass, Italian [14, 19]: 70
Plant response rating, Ryegrass, Italian [14, 20]: 100
Plant response rating, Ryegrass, Italian [14, 21]: 100
Plant response rating, Velvetleaf [15, 16]: 25
Plant response rating, Velvetleaf [15, 17]: 70
Velvetleaf plant response rating [15, 17]: 50
Plant response rating, Velvetleaf [15, 18]: 90
Plant response rating, Velvetleaf [15, 19]: 85
Plant response rating, Velvetleaf [15, 20]: 85
Plant response rating, Velvetleaf [15, 21]: 90
